For 18 molecules, IC50 results are on record in patent US20260334439A1, “BCAT2 INHIBITORS” (Agios Pharmaceuticals, Inc., priority 2023, published 2026).

One may read the IC50 as the concentration needed to halve the response being measured.

Test [1] deals with T1, BCAT2 (Homo sapiens, UniProt O15382).
T1 sequence (O15382 28-392): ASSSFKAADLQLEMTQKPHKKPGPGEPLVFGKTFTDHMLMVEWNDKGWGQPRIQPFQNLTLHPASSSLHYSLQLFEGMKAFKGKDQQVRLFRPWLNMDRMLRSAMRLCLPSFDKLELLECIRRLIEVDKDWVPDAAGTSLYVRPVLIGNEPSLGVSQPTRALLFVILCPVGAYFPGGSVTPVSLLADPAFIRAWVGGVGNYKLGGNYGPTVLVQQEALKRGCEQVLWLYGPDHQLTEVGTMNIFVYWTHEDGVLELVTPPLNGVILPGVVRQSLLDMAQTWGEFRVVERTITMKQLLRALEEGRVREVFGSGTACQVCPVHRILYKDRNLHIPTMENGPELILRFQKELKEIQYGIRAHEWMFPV
Nature of the test: BCAT2 cell inhibition using engineered A549 cells (MUT KO, BCAT1 KO; 13C6-KMV formation by LC-MS/MS). It is filed as cell-based. Further details: expressed endogenous BCAT2; endogenous in cells; host or cells: A549 cells, MUT knockout and BCAT1 knockout. The procedure, abridged:
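Medium 13C6-KMV formation is read by LC-MS/MS after PFBHA derivatization with d8-KMV internal standard. Cells are CRISPR MUT/BCAT1 double-knockout A549 expressing endogenous BCAT2, given compound 15 min before labelled isoleucine (800 uM, added 1:1) for 24 h. CTG viability run in parallel; replicates averaged.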

For test [2], the target named is T1, BCAT2. Nature of the test: BCAT2 in vitro enzyme inhibition assay (hBCAT2, glutamate dehydrogenase/diaphorase/resazurin coupled fluorescence read). It is filed as biochemical. The conditions noted are these: hBCAT2, 1 h preincubation at 25° C., one hour reaction; average where tested multiple times. Put shortly:
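Coupled GDH/diaphorase/resazurin fluorescence (Ex 540/Em 590) read after 1 h reaction at 25 °C, SDS-stopped; enzyme (0.33 μg/mL in mix) first preincubated 1 h with compound, 10-point 3-fold series from 100 μM final, Tris pH 8.0 buffer with NaCl, BSA; technical duplicates, averaged across tests.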

Where [3] appears, read: read-out: BCAT2 Cell Inhibition (IC50), engineered A549 cells, 24 hours, 13C6-KMV in media, average where tested multiple times.

As for `CN(C)Cc1ccc(Cl)cc1C(=O)N[C@H]1CCC[C@@H](n2c(-c3ccccc3F)nc3cnc(-c4nc[nH]n4)cc32)C1` [Example 37, 5-chloro-2-((dimethylamino)methyl)-N-((1S,3R)-3-(2-(2-fluorophenyl)-6-(1H-1,2,4-triazol-3-yl)-1H-imidazo[4,5-c]pyridin-1-yl)cyclohexyl)benzamide], the figures for the half-maximal inhibitory concentration (IC50) against BCAT2 [1] and on BCAT2 [2] were 500 to 1000 nM and under 100 nM, respectively.
With `CO[C@@H]1C[C@H](N2Cc3ccc(F)cc3C2=O)C[C@H](n2c(-c3ccccc3F)nc3cnc(-c4nc[nH]n4)cc32)C1` [Example 195, 6-fluoro-2-((1R,3S,5S)-3-(2-(2-fluorophenyl)-6-(1H-1,2,4-triazol-3-yl)-1H-imidazo[4,5-c]pyridin-1-yl)-5-methoxycyclohexyl)isoindolin-1-one], the IC50 on BCAT2 [1] and against BCAT2 [2] was under 100 nM throughout.
`CO[C@H]1C[C@H](NC(=O)c2cc(Cl)ccn2)C[C@H](n2c(CC(C)C)nc3cnc(-c4ncccn4)cc32)C1` [Example 117, 4-chloro-N-((1R,3S,5S)-3-(2-isobutyl-6-(pyrimidin-2-yl)-1H-imidazo[4,5-c]pyridin-1-yl)-5-methoxycyclohexyl)picolinamide]: the IC50 against BCAT2 [1] is 500 to 1000 nM; on BCAT2 [2], under 100 nM.
On to `CO[C@H]1C[C@H](NC(=O)c2cc(F)ccn2)C[C@H](n2c(-c3ccccc3F)nc3ccc(-c4nc[nH]n4)cc32)C1` [Example 221, 4-fluoro-N-((1S,3R,5R)-3-(2-(2-fluorophenyl)-6-(1H-1,2,4-triazol-3-yl)-1H-benzo[d]imid-azol-1-yl)-5-methoxycyclohex-yl)picolinamide], for which the values for the 50% inhibitory concentration (IC50) on BCAT2 [1] (setting [3]) and on BCAT2 [2] were over 1000 nM and under 100 nM, respectively.
As for `O=C(N[C@@H]1C[C@@H](OC(F)F)C[C@H](n2c(-c3ccccc3F)nc3cnc(-c4ncn[nH]4)cc32)C1)c1cc(F)ccn1` (relative stereo) [compound 128], the IC50 on BCAT2 [1] (engineered A549 cells, 24 hours, 13C6-KMV in media, average where tested multiple times, read-out: BCAT2 Cell Inhibition (IC50)) is 100 to 500 nM; on BCAT2 [2], under 100 nM.
As to `O=C(N[C@H]1CCC[C@@H](n2c(-c3ccccc3F)nc3ccc(-c4nc[nH]n4)cc32)[C@@H]1O)c1cc(Cl)ccn1` [Example 218, 4-chloro-N-((1S,2R,3R)-3-(2-(2-fluorophenyl)-6-(1H-1,2,4-triazol-3-yl)-1H-benzo[d]imid-azol-1-yl)-2-hydroxycyclohex-yl)picolinamide], the values for the IC50 on BCAT2 [1] and against BCAT2 [2] were 100 to 500 nM and under 100 nM, respectively.
The matching figures for `N#Cc1ccccc1-c1nc2cnc(-c3nc[nH]n3)cc2n1[C@@H]1CCC[C@H](N2Cc3ccc(F)cc3C2=O)C1` [Example 171, 2-(1-((1R,3S)-3-(6-fluoro-1-oxoisoindolin-2-yl)cyclohexyl)-6-(1H-1,2,4-triazol-3-yl)-1H-imidazo[4,5-c]pyridin-2-yl)benzonitrile]: under 100 nM and under 100 nM.
Turning to `CCOc1ccc(Cl)cc1C(=O)N[C@H]1CCC[C@@H](n2c(-c3ccccc3F)nc3cnc(-c4nc[nH]n4)cc32)C1` [Example 6, 5-chloro-2-ethoxy-N-((1S,3R)-3-(2-(2-fluorophenyl)-6-(1H-1,2,4-triazol-3-yl)-1H-imidazo[4,5-c]pyridin-1-yl)cyclohexyl)benzamide], the half-maximal inhibitory concentration (IC50) against BCAT2 [1] and on BCAT2 [2] was under 100 nM throughout.
`CO[C@@H]1C[C@H](NC(=O)c2cc(F)ccn2)C[C@H](n2c(-c3ccccc3F)nc3cnc(-c4nc[nH]n4)cc32)C1` [Example 114, 4-fluoro-N-((1R,3S,5R)-3-(2-(2-fluorophenyl)-6-(1H-1,2,4-triazol-3-yl)-1H-imidazo[4,5-c]pyridin-1-yl)-5-methoxycyclohexyl)picolinamide]: the 50% inhibitory concentration (IC50) at BCAT2 [1] and against BCAT2 [2] was under 100 nM in each case.
Consider `COc1ccc(C#N)cc1C(=O)N[C@H]1CCC[C@@H](n2c(-c3ccccc3F)nc3cnc(-c4nc[nH]n4)cc32)C1` [Example 33, 5-cyano-N-((1S,3R)-3-(2-(2-fluorophenyl)-6-(1H-1,2,4-triazol-3-yl)-1H-imidazo[4,5-c]pyridin-1-yl)cyclohexyl)-2-methoxybenzamide], for which the IC50 on BCAT2 [1] was 500 to 1000 nM; against BCAT2 [2], under 100 nM.
`CN1C[C@H](NC(=O)c2cc(F)ccc2F)C[C@H](n2c(-c3ccccc3F)nc3cnc(-c4nc[nH]n4)cc32)C1` [Example 153, 2,5-difluoro-N-((3R,5S)-5-(2-(2-fluorophenyl)-6-(1H-1,2,4-triazol-3-yl)-1H-imidazo[4,5-c]pyridin-1-yl)-1-methylpiperidin-3-yl)benzamide]: the results for the 50% inhibitory concentration (IC50) against BCAT2 [1] and at BCAT2 [2] were 100 to 500 nM and under 100 nM, respectively.
Take `CN1C[C@H](NC(=O)c2cc(Cl)ccc2OCCO)C[C@H](n2c(-c3ccccc3F)nc3cnc(-c4nc[nH]n4)cc32)C1` [Example 150, 5-chloro-N-((3R,5S)-5-(2-(2-fluorophenyl)-6-(1H-1,2,4-triazol-3-yl)-1H-imidazo[4,5-c]pyridin-1-yl)-1-methylpiperidin-3-yl)-2-(2-hydroxyethoxy)benzamide]: the IC50 at BCAT2 [1] is 100 to 500 nM; against BCAT2 [2], under 100 nM.
With `O=C1c2cc(F)ccc2CN1[C@H]1CCC[C@@H](n2c(-c3ccccc3F)nc3cnc(-c4nc[nH]n4)cc32)C1` [Example 169, 6-fluoro-2-((1S,3R)-3-(2-(2-fluorophenyl)-6-(1H-1,2,4-triazol-3-yl)-1H-imidazo[4,5-c]pyridin-1-yl)cyclohexyl)isoindolin-1-one], the IC50 on BCAT2 [1] and against BCAT2 [2] was under 100 nM each time.
With `O=C(N[C@H]1CCC[C@@H](n2c(-c3ccccc3F)nc3cnc(-c4nc[nH]n4)cc32)C1)c1ncccc1Cl` [Example 10, 3-chloro-N-((1S,3R)-3-(2-(2-fluorophenyl)-6-(1H-1,2,4-triazol-3-yl)-1H-imidazo[4,5-c]pyridin-1-yl)cyclohexyl)picolinamide], the IC50 against BCAT2 [1] was 500 to 1000 nM; against BCAT2 [2] it was under 100 nM.
The matching figures for `O=C(N[C@H]1CCC[C@@H](n2c(-c3ccccc3F)nc3cnc(-c4nc[nH]n4)cc32)C1)c1ccccc1F` [Example 76, 2-fluoro-N-((1S,3R)-3-(2-(2-fluorophenyl)-6-(1H-1,2,4-triazol-3-yl)-1H-imidazo[4,5-c]pyridin-1-yl)cyclohexyl)benzamide]: under 100 nM and under 100 nM.
With `CC(C)(O)COc1ccc(Cl)cc1C(=O)N[C@H]1CCC[C@@H](n2c(-c3ccccc3F)nc3cnc(-c4nc[nH]n4)cc32)C1` [Example 39, 5-chloro-N-((1S,3R)-3-(2-(2-fluorophenyl)-6-(1H-1,2,4-triazol-3-yl)-1H-imidazo[4,5-c]pyridin-1-yl)cyclohexyl)-2-(2-hydroxy-2-methylpropoxy)benzamide], the IC50 against BCAT2 [1] and against BCAT2 [2] was under 100 nM throughout.
On to `COc1ccc(Cl)cc1C(=O)N[C@@H]1CCCC[C@H](n2c(-c3ccccc3F)nc3cnc(-c4nc[nH]n4)cc32)[C@H]1O` [Example 104, 5-chloro-N-((1R,2S,3S)-3-(2-(2-fluorophenyl)-6-(1H-1,2,4-triazol-3-yl)-1H-imidazo[4,5-c]pyridin-1-yl)-2-hydroxycycloheptyl)-2-methoxybenzamide], for which the results for the IC50 at BCAT2 [1] (setting [3]) and at BCAT2 [2] were over 1000 nM and 500 to 1000 nM, respectively.
With `CCN(C)c1nc2cnc(-c3nc[nH]n3)cc2n1[C@@H]1CCC[C@H](NC(=O)c2cc(Cl)ccn2)C1` [Example 21, 4-chloro-N-((1S,3R)-3-(2-(ethyl(methyl)amino)-6-(1H-1,2,4-triazol-3-yl)-1H-imidazo[4,5-c]pyridin-1-yl)cyclohexyl)picolinamide], the concentration for half-maximal inhibition (IC50) at BCAT2 [1] (setting [3]) is over 1000 nM; against BCAT2 [2], 100 to 500 nM.
